Results on 17 compounds are retold here after patent publication US20260007688A1, “SYNTHETIC ANALOGS OF CANNABINOL (CBN) FOR THE TREATMENT OF AGERELATED NEUROLOGICAL DISORDERS” (priority 2023, published 2026).

Read-outs that look alike come from different tables or passages of the source.

The subject of assay [1] is HT22 cells. The format is cell-based, mouse.
Source text: A series of fragment chemicals with different variants of the substructures were assembled and screened in a cell-based phenotypic screening assays in the context of oxytosis/ferroptosis (FIG. 1). Specifically, for the left unit (LU), monoterpenoids with different functional groups and/or double-bond substitutions as well as ring arrangements were screened. For the central unit (CU), benzene rings with different hydroxyl group substitutions were screened. For the right unit (RU), different lengths, with or without branches, of the aliphatic hydrocarbon chains were examined.
CBN, CBD and THC were used as reference compounds.
(§1) Briefly, HT22 cells were seeded at 3,000 cells/well in 96-well tissue culture plates in DMEM plus 10% FBS and 1% antibiotics. After 24 hours of plating, the cells were pretreated with different concentrations of the test compounds or a vehicle control for 1 hour followed by coincubation with 5 mM glutamate to initiate the cell death cascade. After 16 hours of treatment, cell viability was measured by the 3-(4,5-dimethylthiazol-2-yl)-2,5-diphenyltetrazolium bromide (MTT) assay. Optical absorbance was measured at 570 nm on a SpectraMax M5 microplate reader. Samples were analyzed in eight to sixteen wells per independent experiment (n=8-16).
as §1, with “The assay procedure described in Fischer et al. was used. Briefly,” for “Briefly,”, “of” for “of the”, “50-100 nM RSL3 or 500 nM erastin” for “5 mM glutamate”, “induce” for “initiate”, “MTT” for “3-(4,5-dimethylthiazol-2-yl)-2,5-diphenyltetrazolium bromide (MTT)”

Assay [2] has as its system HT22 cells. Kind of assay: Ferroptosis assay, RSL3-induced cell death, MTT viability. Type of assay: cell-based. The settings on record: Mus musculus, HT-22, 50 nM RSL3, 16 hours. The method, then: (§2) HT22 mouse hippocampal nerve cells were cultured in high-glucose Dulbecco's modified Eagle's medium (DMEM) (Invitrogen, Cat #11995065, Carlsbad, CA) supplemented with 10% fetal bovine serum (FBS) (Invitrogen, Carlsbad, CA) and 1% antibiotics including penicillin and streptomycin (Invitrogen Cat #10378016, Carlsbad, CA). Cell cultures were incubated at 37° C. in a fully humidified atmosphere containing 10% CO2.
as §1, with “The assay procedure described in Fischer et al. was used. Briefly,” for “Briefly,”, “of” for “of the”, “50-100 nM RSL3 or 500 nM erastin” for “5 mM glutamate”, “induce” for “initiate”, “MTT” for “3-(4,5-dimethylthiazol-2-yl)-2,5-diphenyltetrazolium bromide (MTT)”, “(n=8-16). Results are presented as the percentage of the controls with vehicle alone.” for “(n=8-16).”

The subject of assay [3] is HT22 cells. Kind of assay: Oxytosis assay, glutamate-induced cell death, MTT viability. The format is cell-based. Particulars: Mus musculus, HT-22, 5 mM glutamate, 16 hours. The method, then:
as §2
The assay procedure described in Fischer et al., “Old age-associated phenotypic screening for Alzheimer's disease drug candidates identifies sterubin as a potent neuroprotective compound from Yerba santa” Redox Biol. 21 (2019) 101089 was used. Briefly, HT22 cells were seeded at 3,000 cells/well in 96-well tissue culture plates in DMEM plus 10% FBS and 1% antibiotics. After 24 hours of plating, the cells were pretreated with different concentrations of the test compounds or a vehicle control for 1 hour followed by coincubation with 5 mM glutamate to initiate the cell death cascade. After 16 hours of treatment, cell viability was measured by the 3-(4,5-dimethylthiazol-2-yl)-2,5-diphenyltetrazolium bromide (MTT) assay. Optical absorbance was measured at 570 nm on a SpectraMax M5 microplate reader. Samples were analyzed in eight to sixteen wells per independent experiment (n=8-16). Results are presented as the percentage of the controls with vehicle alone.

Assay [4] relates to HT22 cells. Kind of assay: Ferroptosis assay, erastin-induced cell death, MTT viability. The settings on record: Mus musculus, HT-22, 500 nM erastin, 16 hours. Type of assay: cell-based. The procedure:
as §2
as §1, with “The assay procedure described in Fischer et al. was used. Briefly,” for “Briefly,”, “of” for “of the”, “50-100 nM RSL3 or 500 nM erastin” for “5 mM glutamate”, “induce” for “initiate”, “MTT” for “3-(4,5-dimethylthiazol-2-yl)-2,5-diphenyltetrazolium bromide (MTT)”, “(n=8-16). Results are presented as the percentage of the controls with vehicle alone.” for “(n=8-16).”

The next assay relates to MC65 cells. The assay can be described thus: Intracellular amyloid toxicity assay. The format is cell-based. Particulars: Homo sapiens, 72 h, APP-C99 induced, day 3, MTT, read-out: Aβ toxicity EC50. The text has this:
Accumulation of intracellular amyloid beta peptide (Aβ) is considered by many as being a primary toxic event in AD. The human nerve cell line MC65 conditionally expresses the C99 fragment of the amyloid precursor protein (APP) leading to the accumulation of intracellular AB. The MC65 cells are routinely grown in the presence of tetracycline and, following its removal, the expression of C99 is induced and the cells die within three days because of the accumulation of intracellular, toxic protein aggregates.
For the intracellular amyloid toxicity assay the procedure described in Huang et al., “Intracellular amyloid toxicity induces oxytosis/ferroptosis regulated cell death” Cell Death Dis. 11 (10) (2020) 828 was used. Briefly, MC65 cells were regularly grown in high glucose DMEM supplemented with 10% FCS and 2 μg/ml tetracycline. For the assay, cells were dissociated and plated at 1×10^5 cells per well in 24 well tissue culture plates. After overnight cultivation in growth medium, the cells were washed three times with phosphate buffered saline containing calcium and magnesium and then switched to Opti-minimal essential media (Opti-MEM, Invitrogen) in the presence (no induction) or absence (APP-C99 induced) of 2 μg/ml tetracycline in the presence or absence different concentrations of the indicated compounds. At day 3, the control cells in the absence of tetracycline were dead, and cell viability was determined by the MTT assay. Optical absorbance was measured at 570 nm on a SpectraMax M5 microplate reader. Samples were analyzed in three wells per independent experiment (n=3). Results are presented as EC50.

The test system of the next assay is Drosophila melanogaster. Kind of assay: Drosophila mild traumatic brain injury (mTBI) model. Type of assay: in vivo. The settings on record: 3.0 μM in food, 3 weeks after mTBI (10×); vehicle 70.2%.
In assay [5] the test system is HT22 cells. The assay can be described thus: Seahorse XF mitochondrial stress test (OCR). The format is cell-based, mouse. Particulars: 16 hours, compared with the control cells.
The subject of assay [6] is HT22 cells. Kind of assay: Mitochondrial reactive oxygen species measurement (MitoSOX Red). Type of assay: cell-based, mouse. Particulars: 5 μM compound + 50 nM RSL3. The method, then: The assay procedure described in Liang et al. was used. Briefly, HT22 cells were seeded onto 96-well black walled plates at a density of 3,000 cells/well in DMEM supplemented with 10% FBS and 1% antibiotics. After the desired treatments, the mitochondrial superoxide ROS were detected with MitoSOX Red reagent (Ex/Em=510/580 nm). Experiments were performed according to the manufacturer's instructions. Fluorescence was measured on a SpectraMax M5 microplate reader. Data were normalized for total protein/well. Each condition was analyzed in eight wells per independent experiment (n=8). Results are presented as the percentage of the controls with vehicle alone. Results were verified by live-cell imaging under a fluorescence microscope. FIG. 14 provides the results.

For the compound `Oc1ccccc1O` [catechol], the “neuroprotective activity against oxytosis/ferroptosis” value in the assay on HT22 cells [1] (10-50 μM, glutamate and RSL3) is “weak neuroprotective activities”.

With `Oc1cccc(O)c1O` [pyrogallol], the “neuroprotective activity against oxytosis/ferroptosis” value with HT22 cells [1] (1-50 μM, glutamate and RSL3) was “limited neuroprotective activity”.

With `CCCCCc1cc(O)cc(O)c1` [olivetol, 5-pentyl-1,3-benzenediol], in the assay with HT22 cells [1] (10-50 μM, glutamate and RSL3), the “neuroprotective activity against oxytosis/ferroptosis” value is reported as “good to excellent neuroprotective activity”.

Turning to `Oc1ccc(O)c(O)c1` [hydroxyquinol], the “neuroprotective activity against oxytosis/ferroptosis” value with HT22 cells [1] (1-50 μM, glutamate and RSL3) is given as “limited neuroprotective activity”.

As to `CCCCCCC(C)(C)c1cc(O)c2c(c1)OC(C)C=C2` (centres unmarked) [CP2, 2-methyl-7-(2-methyloctan-2-yl)-2H-chromen-5-ol], the EC50 in the assay on HT22 cells [2] came out at 920 nM; in the assay on HT22 cells [3] it was 2890 nM; with HT22 cells [4], 3360 nM; in the assay on MC65 cells, 97 nM. For the same compound, the “3-week mortality index (MI), percentage of dead flies” value in the assay with Drosophila melanogaster was determined as 66.7%.

`Oc1cc(O)cc(O)c1` [phloroglucinol]: the “neuroprotective activity against oxytosis/ferroptosis” value in the assay with HT22 cells [1] (1-50 μM, glutamate and RSL3) is recorded as “limited neuroprotective activity”.

Turning to `CCCCCCCCCCCCCCCc1cc(O)cc(O)c1` [5-pentadecylresorcinol], the “neuroprotective activity against oxytosis/ferroptosis” value in the assay on HT22 cells [1] (1-50 μM, glutamate and RSL3) is listed as “no further improvement in neuroprotective activity”.

With `CCCCc1ccc(O)c(O)c1` [4-butylbenzene-1,2-diol], in the assay with HT22 cells [1] (10-50 μM, glutamate and RSL3), the “neuroprotective activity against oxytosis/ferroptosis” value is on record as “good to excellent neuroprotective activity”.

On to `Oc1ccc(O)cc1` [hydroquinone], for which, in the assay with HT22 cells [1], the “neuroprotective activity against oxytosis/ferroptosis” value is “weak neuroprotective activities”.

On to `CCCCCCC(C)(C)c1cc(O)cc(O)c1` [5-(1,1-dimethylheptyl) resorcinol], for which, in the assay on HT22 cells [1] (1 μM), the neuroprotection is listed as greater than 50%.

As to `CCCCCc1cc(O)c2c(c1)OC(C)C=C2` (centres unmarked) [CP4, 2-methyl-7-pentyl-2H-chromen-5-ol], the EC50 turned out to be 830 nM in the assay with HT22 cells [2], 6630 nM with HT22 cells [3], 8080 nM in the assay on HT22 cells [4] and 1600 nM in the assay on MC65 cells. In the assay on Drosophila melanogaster, the “3-week mortality index (MI), percentage of dead flies” value is 61.9%.

Turning to `CCCCCCc1ccc(O)cc1O` [4-hexylresorcinol, 4-hexylbenzene-1,3-diol], the “neuroprotective activity against oxytosis/ferroptosis” value with HT22 cells [1] (10-50 μM, glutamate and RSL3) was “good to excellent neuroprotective activity”.

Regarding `CC(C)(C)c1cc(O)ccc1O` [2-tert-butylbenzene-1,4-diol], in the assay on HT22 cells [1] (10-50 μM, glutamate and RSL3), the “neuroprotective activity against oxytosis/ferroptosis” value is “good to excellent neuroprotective activity”.

With `CCCCCCC(C)(C)c1cc(O)c2c(c1)OC(C)(C)C=C2` [CP1, 2,2-dimethyl-7-(2-methyloctan-2-yl)-2H-chromen-5-ol], the EC50 with HT22 cells [2] came to 680 nM; with HT22 cells [3] it was 1890 nM; with HT22 cells [4], 2780 nM; in the assay on MC65 cells, 31 nM. Also, in the assay on HT22 cells [5], the “maximal and spare mitochondrial respiration (OCR)” value is “strongest effect on the suppression”. Further, the “RSL3-induced mtROS production” value in the assay with HT22 cells [6] is “strongest anti-mtROS effect”. Besides, in the assay with Drosophila melanogaster, the “3-week mortality index (MI), percentage of dead flies” value was determined as 49.5%.

Consider `CCCCCc1cc(O)c2c(c1)OC(C)(C)C=C2` [CP3, 2,2-dimethyl-7-pentyl-2H-chromen-5-ol], for which the EC50 in the assay on HT22 cells [2] was 860 nM; with HT22 cells [3], 2600 nM; in the assay with HT22 cells [4], 3780 nM; in the assay on MC65 cells, 144 nM. Moreover, in the assay on Drosophila melanogaster, the “3-week mortality index (MI), percentage of dead flies” value is recorded as 67.3%.

With `Oc1ccccc1` [phenol], the “neuroprotective activity against oxytosis/ferroptosis” value with HT22 cells [1] is given as “limited neuroprotective activity”.

Turning to `Oc1cccc(O)c1` [resorcinol], in the assay with HT22 cells [1] (1-50 μM, glutamate and RSL3), the “neuroprotective activity against oxytosis/ferroptosis” value was “limited neuroprotective activity”.

As a reminder, the EC50 is the concentration that produces a half-maximal response.
